Measured values taken from paper PMC6018403 (Frontiers in Pharmacology, 2018).
Like-named read-outs stand apart in the source and are kept apart here.

Assay: Multi-component pharmacokinetic study of GQD, GQD-GC and single herb extracts in rats (plasma, LC/MS/MS)
Format: in vivo, Sprague-Dawley rats
Description: Male Sprague-Dawley rats (220–250 g) were used for PK study, and the details were described in Supplemental Data. All procedures were in accordance with the National Institutes of Health Guide for the Care and Use of Laboratory Animals.
For PK study of GQD and its component herbs, rats were randomly divided into six groups (n = 10 for each group) before oral administration.
All blood samples were immediately centrifuged at 6,000 rpm (4°C) for 20 min to obtain plasma. The plasma samples were stored at −80°C.
A Finnigan TSQ Quantum triple quadrupole mass spectrometer was connected to a Surveyor HPLC via ESI interface (ThermoFisher). High purity nitrogen was used as the sheath and auxiliary gas; Ultra-high purity argon was used as the collision gas (1.5 mTorr). Q1 and Q3 quadrupoles were set at unit resolution. […] The column temperature was 40°C. The mobile phase consisted of acetonitrile containing 2% (v/v) methanol (A) and water containing 0.1% (v/v) formic acid (B). […] An aliquot of 5 μL was injected for analysis. UV spectra were obtained by scanning from 200 to 400 nm. The mass spectrometer was operated in the (+)-ESI mode. The optimized parameters were as follows: sheath gas (N2), 50 arb; auxiliary gas (N2), 5 arb; spray voltage, 4.0 kV; capillary temperature, 330°C; collision energy, see Table S1. Analytes were detected in the selected reaction monitoring (SRM) mode. Data were processed by Xcalibur 2.0.7 software (ThermoFisher).
LC/MS/MS calibration and quantitation data were processed with Xcalibur 2.0.7 software (ThermoFisher). The maximal plasma concentrations (Cmax) and their time of occurrence (Tmax) were obtained directly from the measured data. Other pharmacokinetic parameters were calculated by non-compartment or compartment models using WinNonlin® software (v6.1, Pharsight). Unless otherwise stated, results were expressed as the mean ± SD. Statistical significance in differences of the means was determined by Student's t–test, with a significance level of P < 0.05.
Herbal materials and extracts.
The four component herbs, Puerariae Lobatae Radix (Ge-Gen, GG), Scutellariae Radix (Huang-Qin, HQ), Coptidis Rhizoma (Huang-Lian, HL), and Glycyrrhizae Radix et Rhizoma Praeparata cum Melle (Gan-Cao, GC) were purchased from Tianheng Pharmacy. GQD was prepared by decocting the four component herbs […]
pre-extraction of Ge-Gen using 200 mL of water for 0.5 h. The decoctions were combined, filtered, and concentrated in vacuum at 50 °C. GQD-GC was prepared using the same procedure, except that Gan-Cao was removed from the formula. Final concentration of the GQD-GC extract was equivalent to 1.0 g of the crude drugs per mL. For single herb extracts, the herbs were decocted in 8-fold volume of water for […]
Final concentrations of the extracts were 1.0 g/mL for Ge-Gen, and 0.5 g/mL for Huang-Qin, Huang-Lian and […]
For pharmacokinetic study, Male Sprague-Dawley rats (220-250 g) were obtained from the Laboratory Animal Center of Peking University Health Science Center. The […]
The rats had free access to tap water and soy-free custom diet (Ke’ao Xieli Co.). All procedures were in accordance with the National Institutes of Health Guide for the Care and Use of Laboratory Animals […]
Experimental details for the PK study
1. Preparation of internal standard solution, calibration standard solutions, and quality control solutions […]
internal standard solution. Reference standard compounds were dissolved in the internal standard solution to prepare individual stock solutions (1.0 mg/mL). These […]
each compound. The standard solution was then serially diluted to obtain calibration […]
Quality control stock solutions were prepared at three concentration levels as high QC (HQC), middle QC (MQC), and low QC (LQC), based on linear ranges of the analytes.
2.1. Sample preparation for pharmacokinetic study
The calibration standard and quality control solutions for pharmacokinetic study were […]

[1] = male, Sprague-Dawley, rat, plasma, po, 3.54 g/kg, HQ (Huang-Qin) group: rats, oral extract 3.54 g/kg, plasma, read-out: AUClast
[2] = male, Sprague-Dawley, rat, plasma, po, 16.5 g/kg, GQD-GC group (GQD without Gan-Cao): rats, oral 16.5 g/kg, plasma, read-out: AUClast
[3] = male, Sprague-Dawley, rat, plasma, po, 18.9 g/kg, GQD group: rats, oral GQD extract 18.9 g/kg, plasma, read-out: AUClast
[4] = male, Sprague-Dawley, rat, GQD group: rats, oral GQD extract 18.9 g/kg, plasma, read-out: Cmax
[5] = male, Sprague-Dawley, rat, GQD group: rats, oral GQD extract 18.9 g/kg, plasma, read-out: T1/2 (converted)
[6] = male, Sprague-Dawley, rat, GQD group: rats, oral GQD extract 18.9 g/kg, plasma, read-out: Tmax
[7] = male, Sprague-Dawley, rat, GQD-GC group (GQD without Gan-Cao): rats, oral 16.5 g/kg, plasma, read-out: Cmax
[8] = male, Sprague-Dawley, rat, GQD-GC group (GQD without Gan-Cao): rats, oral 16.5 g/kg, plasma, read-out: T1/2 (converted)
[9] = male, Sprague-Dawley, rat, GQD-GC group (GQD without Gan-Cao): rats, oral 16.5 g/kg, plasma, read-out: Tmax
[10] = male, Sprague-Dawley, rat, HQ (Huang-Qin) group: rats, oral extract 3.54 g/kg, plasma, read-out: Cmax
[11] = male, Sprague-Dawley, rat, HQ (Huang-Qin) group: rats, oral extract 3.54 g/kg, plasma, read-out: T1/2 (converted)
[12] = male, Sprague-Dawley, rat, HQ (Huang-Qin) group: rats, oral extract 3.54 g/kg, plasma, read-out: Tmax
[13] = male, Sprague-Dawley, rat, in vivo, po, 3.54 g/kg
[14] = male, Sprague-Dawley, rat, in vivo, po, 3.54 g/kg, AUClast
[15] = male, Sprague-Dawley, rat, in vivo, po, 16.5 g/kg
[16] = male, Sprague-Dawley, rat, in vivo, po, 18.9 g/kg
[17] = male, Sprague-Dawley, rat, in vivo, po, 18.9 g/kg, AUClast
[18] = male, Sprague-Dawley, rat, plasma, po, 9.45 g/kg, GG (Ge-Gen) group: rats, oral extract 9.45 g/kg, plasma, read-out: AUClast
[19] = male, Sprague-Dawley, rat, GG (Ge-Gen) group: rats, oral extract 9.45 g/kg, plasma, read-out: Cmax
[20] = male, Sprague-Dawley, rat, GG (Ge-Gen) group: rats, oral extract 9.45 g/kg, plasma, read-out: T1/2 (converted)
[21] = male, Sprague-Dawley, rat, GG (Ge-Gen) group: rats, oral extract 9.45 g/kg, plasma, read-out: Tmax
[22] = male, Sprague-Dawley, rat, in vivo, po, 2.36 g/kg
[23] = male, Sprague-Dawley, rat, in vivo, po, 2.36 g/kg, AUClast

Structure (SMILES) | AUC(0-t) [2] [ng·h/mL] | AUC(0-t) [3] [ng·h/mL] | Cmax [4] [ng/mL] | half-life [5] [h] | Tmax [6] [h] | Cmax [7] [ng/mL] | half-life [8] [h] | Tmax [9] [h] | AUC(0-t) [18] [ng·h/mL] | Cmax [19] [ng/mL] | half-life [20] [h] | Tmax [21] [h] | other results
O=C(O)[C@H]1O[C@@H](Oc2cc(O)c3c(=O)cc(-c4ccccc4)oc3c2O)[C@H](O)[C@@H](O)[C@@H]1O [Compound 14, norwogonin 7-O-glucuronide] | 6030 ± 272 | 5270 ± 987 | 379 ± 98.5 | 4.88 ± 2.87 | 7.05 ± 1.23 | 359 ± 34.3 | 4.28 ± 1.63 | 6.17 ± 8.34 |  |  |  |  | AUC(0-t) [1]: 11000 ± 2530 ng·h/mL; AUC(0-t) (male, Sprague-Dawley, rat, plasma, po, 3.54 g/kg, Huang-Qin group: rats, oral 3.54 g/kg, plasma, read-out: AUClast): 11000 ± 2530 ng·h/mL; Cmax [10]: 547 ± 73.8 ng/mL; half-life [11]: 5.1 ± 0.33 h; Tmax [12]: 7.36 ± 0.08 h; decrease of Cmax in the GQD group compared with the Huang-Qin group (rats, oral, GQD vs Huang-Qin): at least 30%
COc1c(O)cc(OC2OC(CO)C(O)C(O)C2O)c2c(=O)cc(-c3ccccc3)oc12 (stereo not drawn) [Compound 13, wogonin 5-O-glucoside] | 28.2 ± 3.04 | 53 ± 7.56 | 1.83 ± 0.14 | 16.1 ± 4.22 | 2 ± 1.29 | 5.17 ± 0.26 | 13.1 ± 3.96 | 2 ± 4.23 |  |  |  |  | AUC(0-t) [1]: 42.8 ± 6.01 ng·h/mL; Cmax [10]: 1.92 ± 0.13 ng/mL; half-life [11]: 16.1 ± 5.45 h; Tmax [12]: 0.1 ± 0.07 h
c1c2c(cc3c1OCO3)-c1cc3ccc4c(c3c[n+]1CC2)OCO4 [Compound 21, coptisine] |  |  |  |  |  |  |  |  |  |  |  |  | increase of AUClast in GQD group compared with the Huang-Lian group (male, Sprague-Dawley, rat, in vivo, po): 49.1%; Cmax [13]: 5.33 ± 1.35 ng/mL; Tmax [13]: 0.68 ± 0.65 h; half-life [13]: 3.83 ± 1.34 h; AUC(0-t) [14]: 73.2 ± 21.2 ng·h/mL; Cmax [15]: 8.39 ± 1.3 ng/mL; Tmax [15]: 0.69 ± 0.76 h; half-life [15]: 3.87 ± 0.27 h; AUC(0-t) (male, Sprague-Dawley, rat, in vivo, po, 16.5 g/kg, AUClast): 167 ± 24.4 ng·h/mL; AUClast [16]: 109.2 ± 73.23 ng·h/mL; Cmax [16]: 6.56 ± 4.03 ng/mL; Tmax [16]: 0.74 ± 0.32 h; half-life [16]: 5.2 ± 1.37 h; AUC(0-t) [17]: > 100 ng·h/mL
COc1ccc(-c2coc3c(C4OC(COC5OCC(O)(CO)C5O)C(O)C(O)C4O)c(O)ccc3c2=O)cc1 (stereo not drawn) [Compound 5, formononetin 8-C-apiofuranosyl(1,6)glucoside] | 26 ± 7.29 | 168 ± 83.3 | 16 ± 5.44 | 7.03 ± 2.31 | 0.76 ± 3.76 | 6.87 ± 2.05 | 5.23 ± 1.35 | 0.52 ± 0.65 | 85 ± 19.2 | 18.4 ± 5.1 | 8.98 ± 2.34 | 0.39 ± 0.17 | bioavailability in the GQD group compared with the Ge-Gen group (rats, oral): higher
COc1c(O)cc2oc(-c3ccccc3)cc(=O)c2c1O [Compound 9, oroxylin A] |  |  |  |  |  |  |  |  |  |  |  |  | Cmax [13]: 43.6 ± 3.04 ng/mL; Tmax [13]: 0.08 ± 0.53 h; half-life [13]: 5.29 ± 2.33 h; AUC(0-t) [14]: 351 ± 174 ng·h/mL
O=C1C[C@@H](c2ccc(O)cc2)Oc2cc(O)ccc21 [Compound 29, liquiritigenin] |  |  |  |  |  |  |  |  |  |  |  |  | Cmax [22]: 22.63 ± 0.22 ng/mL; Tmax [22]: 1 ± 2.34 h; half-life [22]: 9.84 ± 3.52 h; AUC(0-t) [23]: 75.4 ± 81.1 ng·h/mL; Cmax [16]: 27.4 ± 9.97 ng/mL; Tmax [16]: 1 ± 0.93 h; half-life [16]: 11.2 ± 7.69 h; AUC(0-t) [17]: 153 ± 9.34 ng·h/mL
COc1c(CC=C(C)C)c(O)cc2oc(=O)c(-c3ccc(O)cc3O)cc12 [Compound 30, glycycoumarin] |  | 37.9 ± 29.9 | 7.47 ± 8.1 | 11.3 ± 3.38 | 2 ± 1.24 |  |  |  |  |  |  |  | AUC (Gan-Cao group: rats, oral 2.36 g/kg, plasma): not detected; AUC(0-t) (male, Sprague-Dawley, rat, plasma, po, 18.9 g/kg, GQD group: rats, oral GQD 18.9 g/kg (1.5-fold of clinical dosage), plasma, read-out: AUClast): 37.9 ± 29.9 ng·h/mL; plasma concentrations, effect of GQD compared with Gan-Cao (rats, oral): improved
CC1(C(=O)O)CCC2(C)CCC3(C)C(=CC(=O)C4C5(C)CCC(OC6OC(C(=O)O)C(O)C(O)C6OC6OC(C(=O)O)C(O)C(O)C6O)C(C)(CO)C5CCC43C)C2C1 (stereo not drawn) [Compound 35, licorice saponin G2] |  |  |  |  |  |  |  |  |  |  |  |  | Cmax [22]: 8.98 ± 2.49 ng/mL; Tmax [22]: 3.7 ± 1.41 h; half-life [22]: 2.3 ± 6.79 h; AUC(0-t) [23]: 81 ± 27.7 ng·h/mL; Cmax [16]: 10.3 ± 6.38 ng/mL; Tmax [16]: 3.89 ± 1.41 h; half-life [16]: 2.53 ± 0.14 h; AUC(0-t) [17]: 102 ± 53.3 ng·h/mL
O=c1c(-c2ccc(O)cc2)coc2c(C3OC(COC4OCC(O)(CO)C4O)C(O)C(O)C3O)c(O)cc(O)c12 (stereo not drawn) [Compound 6, genistein 8-C-apiofuranosyl(1,6)glucoside] | 96.3 ± 105 | 98.8 ± 24.8 | 11.3 ± 3.32 | 6.77 ± 3.44 | 8.39 ± 0.23 | 12.1 ± 7.87 | 2.15 ± 1.7 | 1.56 ± 1.53 | 168 ± 33.6 | 11.3 ± 1.8 | 5.57 ± 3.48 | 0.73 ± 0.3 | 
COc1ccc(C2=CC(=O)OC2Cc2ccc(O)cc2)c(OC2OC(CO)C(O)C(O)C2O)c1 [Compound 41, (4S)-puerol B 2″-O-glucopyranoside] | 18.9 ± 4.09 | 37.5 ± 21.1 | 10.9 ± 9.4 | 7.98 ± 2.88 | 0.52 ± 0.26 | 11.1 ± 4.41 | 6.45 ± 5.16 | 0.53 ± 1.2 | 67.3 ± 28.7 | 14.9 ± 9.76 | 9.31 ± 2.19 | 0.52 ± 1.11 | 
O=c1c(-c2ccc(O)cc2)coc2cc(O[C@@H]3O[C@H](CO)[C@@H](O)[C@H](O)[C@H]3O)cc(O)c12 [Compound 4, genistin] | 88.2 ± 24.3 | 72.6 ± 15.2 | 4.97 ± 1.11 | 6.93 ± 0.73 | 1.04 ± 0.78 | 8.08 ± 3.19 | 8.17 ± 2.43 | 1.04 ± 0.75 | 51.7 ± 24.2 | 3.09 ± 1.99 | 6.88 ± 5.23 | 1 ± 2.31 | bioavailability in the GQD group compared with the Ge-Gen group (rats, oral): higher
